From patent US20020049190A1, “Pharmaceutical compositions comprising metal complexes” (priority 1999, published 2002)

Tests used:
[1] = In vitro test of NO uptake: manometer pressure and IR spectrum of freeze-dried product; type: binding; conditions: aqueous solution under argon, 20° C.-24° C., NO gas in headspace, one hour
Experimental: The resulting solution was placed in a three-necked pear-shaped flask and stirred by a magnetic stirrer at constant speed of 1000 rpm, at a constant temperature in the range 20° C.-24° C. A manometer was attached to the flask, and purified, dried nitric oxide gas (known volume in the range 3-5cm^3) was introduced via a septum, using a gas syringe, at atmospheric pressure into the headspace above the reaction solution. The pressure within the flask was recorded periodically over a period of one hour.
A control experiment was carried out according to the above but without any complex present.
On completion of each in vitro test, the reaction solution was freeze-dried. An infrared spectrum of the freeze-dried product provided information on metal-NO bond formation.

[2] = system: murine (RAW264) macrophage cell lines; assay: In vitro cell culture test: available nitric oxide (nitrite+nitrate) in activated macrophages; type: cell-based; conditions: LPS + interferon γ activated RAW264, 18 hours
Experimental: Concurrently, test compounds made up in MEM were added at non-cytotoxic concentrations. Control cells as above, which were activated to produce nitric oxide as above, but to which no test compound was added, were used as a measure of the amouint of nitric oxide produced by the cells during the tests. (See […]. Powell, O. J. Vaughan, G. R. Henderson, B. A. Murrer, […]. Bisland, […], Ruthenium complexes as nitric oxide scavengers: a potential therapeutic approach to nitric oxide-mediated diseases, Br. J Pharmacol., 1997, 122, 1441-1449.) Background nitric oxide was assessed by measurement of nitrate and nitrite in cells which were not activated. Cell viability was confirmed by Trypan blue dye exclusion at the end of the incubation period. Nitric oxide was determined by measurement of nitrate and nitrite in the cell supernatant. These anions are the stable end-products of reactions of NO in solution. Such reactions may or may not be catalysed in biological systems. The sum of nitrite and nitrate concentrations gives the total NO production. […] Nitrate was determined by reducing nitrate to nitrite with a bacterial nitrate reductase from Pseudomonas oleovorans and then measuring nitrite with the Griess reaction. In the absence of test compounds nitrite concentration plus nitrate concentration is equal to total nitric oxide production. The effect of test compounds on available nitric oxide (measured as nitrite+nitrate) was determined. The reduction in available nitric oxide compared with the control level may be taken as an indication of the degree of binding of NO by the test compounds.

[3] = system: rat tail artery; assay: Ex vivo test: perfused pre-contracted rat tail artery, vasoconstriction; conditions: for Vasoconstriction on application of test compound: 10 μM and 100 μM (Example 26 also 1000 μM); for % Vasoconstriction: artery pre-contracted with 6.5 μM phenylephrine; for Reversibility of the vasoconstriction: washout with Krebs solution
Source text: In the ex vivo tests, segments of rat tail artery (0.8-1.5 cm) were dissected free from normotensive adult Wistar rats. The arteries were internally perfused with Krebs solution (mM: NaCl 118, KCl 4.7, NaHCO3 25, NaH2PO4 1.15, CaCl22.5, MgCl2 1.1, glucose 5.6 and gassed with 95% O2/5% CO2 to maintain a pH of 7.4) in a constant flow perfusion apparatus. A differential pressure transducer located upstream of the vessel detected changes in back pressure. The rat tail artery preparation was pre-contracted with 6.5 μM phenylephrine to give a physiologically normal pressure of 100-120 mm Hg. The pre-contracted vessels were then perfused with the test compound. The arteries were perfused with Krebs solution between applications of test compound to wash out the test compound.
Pressure changes in the system served to indicate artery vasoconstriction. The vasoconstriction is a direct result of the removal of endogenous nitric oxide (edrf) from the endothelial cells of the rat tail artery.

[4] = system: rat P22 carcinosarcoma grown in BD-IX rats; assay: Tumour growth, vascularisation and plasma nitrite/nitrate in rats bearing P22 carcinosarcoma; type: in vivo; conditions: for Nitrite/nitrate levels at Day 28 / Tumour vascularisation (MVD), Mean Chalkey score: 50 mg/kg daily i.p. Day 10-Day 28; for Nitrite/nitrate levels at Day 28: Griess assay, untreated control 7.75; for Tumour vascularisation (MVD), Mean Chalkey score: anti-CD31 immunostaining, untreated control 13.0; for Tumour growth: 50 mg/kg daily intraperitoneal, Day 10-Day 28, male BD-IX rats
Experimental: The effect of AMD6245 (Example 113) and AMD6221 (Example 8) on tumour growth was assessed using the rat P22 carcinosarcoma grown in BD-IX rats (Kennovin et al., in Biology of Nitric Oxide, Vol. 4, (S. Moncada, M. Feelisch, R. Busse, and A. E. Higgs, eds.), Portland Press, London, 1994, pp. 473-479). The tumour was implanted subcutaneously on the dorsal surface of male BD-IX rats on Day 0. Tumour growth was measured daily using calipers and tumour volume calculated from the equation […] where X=the short tumour axis and Y=the long tumour axis. Tumours were measurable by Day 10. AMD6245 and AMD6221 were administered daily by intraperitoneal injection at a dose of 50 mg/kg from Day 10-Day 28. Tumour vascularisation (Microvascular Density or MVD) was measured by Chalkley point counting after immunostaining with anti-CD31 antibody (Vermeulen et al., Eur. J. Cancer, 32A, 2474-2484, (1996)). Nitrite/nitrate was measured by the Griess assay (see Table 4). These anions are the stable end products of NO in solution. Nitrate was first reduced to nitrite by […]. The sum of nitrite and nitrate gives the total NO production.

| Compound | Pressure decrease indicating binding of NO to the metal compound [1] | % Decrease of Available Nitric Oxide ([2]; 100 μM test compound) | Vasoconstriction on application of test compound [3] | % Vasoconstriction ([3]; 10 μM) | % Vasoconstriction ([3]; 100 μM) | Reversibility of the vasoconstriction [3] | also measured |
| --- | --- | --- | --- | --- | --- | --- | --- |
| O.O.O=C([O-])CN(CCN(CC(=O)[O-])CC(=O)O)CC(=O)[O-].[Cl-].[K+].[Ru+3] [Example 1, K[Ru(hedta)Cl]2H2O] | pressure decrease indicated binding of NO | 75% | – | – | – | – | % Decrease of Available Nitric Oxide ([2]; 25 μM test compound): 12%; % Decrease of Available Nitric Oxide ([2]; 50 μM test compound): 23% |
| CC(=O)C=C(C)[O-].O=C([O-])CN(CCN(CC(=O)O)CC(=O)O)CC(=O)[O-].[Ru+3] [Example 2, [Ru(H2edta)(acac)]] | – | 82% | dose-dependent vasoconstriction | 20% | 69% | reversible by washout | – |
| O.O=C([O-])CN(CCO)CCN(CC(=O)[O-])CC(=O)[O-].[Cl-].[K+].[Ru+3] [Example 3, K[Ru(hedtra)Cl]H2O] | pressure decrease indicated binding of NO | 42% | dose-dependent vasoconstriction | 17% | 59% | reversible by washout | – |
| O.O=C([O-])c1cccc(C(=O)[O-])n1.O=C([O-])c1cccc(C(=O)[O-])n1.[K+].[Ru+3] [Example 4, K[Ru(dipic)2]H2O] | pressure decrease indicated binding of NO | – | – | – | – | – | – |
| O.O=C([O-])CN(CCN(CC(=O)O)CC(=O)O)CC(=O)[O-].[Cl-].[Cl-].[K+].[Ru+3] [Example 6, K[Ru(H2edta)Cl2]H2O] | pressure decrease indicated binding of NO | 77% | – | – | – | – | – |
| CC(=O)[O-].CC(=O)[O-].CC(=O)[O-].CC(=O)[O-].[Cl-].[Ru+3].[Ru+3] [Example 14, [Ru2(OAc)4]Cl] | – | 47% | dose-dependent vasoconstriction | 11% | 40% | reversible by washout | – |
| Cc1occc(=O)c1[O][Ru]([O]c1c(C)occc1=O)[O]c1c(C)occc1=O [Example 26, [Ru(maltol)3]] | – | 71% | dose-dependent vasoconstriction | 10% | 18% | reversible by washout | % Vasoconstriction ([3]; 1000 μM): 25% |
| K[Ru(H2dtpa)Cl]H2O [Example 8] | pressure decrease indicated binding of NO | – | – | – | – | – | Nitrite/nitrate levels at Day 28 [4]: 5.09 μmoles/litre plasma; Tumour vascularisation (MVD), Mean Chalkey score [4]: 5.3; Tumour growth [4]: inhibited the growth |
| K[Ru(hnta)2]½H2O [Example 7] | pressure decrease indicated binding of NO | – | – | – | – | – | – |
| [Ru(Hedta)]H2O [AMD6245] | – | – | – | – | – | – | Nitrite/nitrate levels at Day 28 [4]: 3.88 μmoles/litre plasma; Tumour vascularisation (MVD), Mean Chalkey score [4]: 3.0; Tumour growth [4]: inhibited the growth |
| [Ru(NH3)5Cl]Cl2 [Example 15] | – | 86% | dose-dependent vasoconstriction | 77% | 86% | reversible by washout | – |
